pIC50: −log10 of the molar value.
Test system: 743489-274-T-PDC complex spheroid viability
Test: Anticancer human tumor 743489-274-T-PDC patient-derived renal cell carcinoma cell line growth inhibition
Details: for pIC50: curve of first compound; for viability, T/C: stronger effect = lower value
Method in brief: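 Drug combinations with the LSD1 inhibitor iadademstat tested on tumor cells co-cultured as spheroids with endothelial cells and mesenchymal stem cells. Concentrations descended in half-log increments from clinical Cmax or 10 microM.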

[1] = second compound 0.1 µM, first compound 0.0316 µM
[2] = second compound 0.1 µM, first compound 0.1 µM
[3] = second compound 0.316 µM, first compound 0.0316 µM
[4] = second compound 0.316 µM, first compound 0.1 µM
[5] = second compound 1 µM, first compound 0.0316 µM
[6] = second compound 1 µM, first compound 0.1 µM
[7] = second compound 3.16 µM, first compound 0.0316 µM
[8] = second compound 3.16 µM, first compound 0.1 µM
[9] = second compound 10 µM, first compound 0.0316 µM
[10] = second compound 10 µM, first compound 0.1 µM
[11] = second compound 0.1 µM, first compound 0.000949 µM
[12] = second compound 0.1 µM, first compound 0.003 µM
[13] = second compound 0.1 µM, first compound 0.00949 µM
[14] = second compound 0.1 µM, first compound 0.03 µM
[15] = second compound 0.1 µM, first compound 0.0949 µM
[16] = second compound 0.1 µM, first compound 0.3 µM
[17] = second compound 0.316 µM, first compound 0.000949 µM
[18] = second compound 0.316 µM, first compound 0.003 µM
[19] = second compound 0.316 µM, first compound 0.00949 µM
[20] = second compound 0.316 µM, first compound 0.03 µM
[21] = second compound 0.316 µM, first compound 0.0949 µM
[22] = second compound 0.316 µM, first compound 0.3 µM
[23] = second compound 1 µM, first compound 0.000949 µM
[24] = second compound 1 µM, first compound 0.003 µM
[25] = second compound 1 µM, first compound 0.00949 µM
[26] = second compound 1 µM, first compound 0.03 µM
[27] = second compound 1 µM, first compound 0.0949 µM
[28] = second compound 1 µM, first compound 0.3 µM
[29] = second compound 3.16 µM, first compound 0.000949 µM
[30] = second compound 3.16 µM, first compound 0.003 µM
[31] = second compound 3.16 µM, first compound 0.00949 µM
[32] = second compound 3.16 µM, first compound 0.03 µM
[33] = second compound 3.16 µM, first compound 0.0949 µM
[34] = second compound 3.16 µM, first compound 0.3 µM
[35] = second compound 10 µM, first compound 0.000949 µM
[36] = second compound 10 µM, first compound 0.003 µM
[37] = second compound 10 µM, first compound 0.00949 µM
[38] = second compound 10 µM, first compound 0.03 µM
[39] = second compound 10 µM, first compound 0.0949 µM
[40] = second compound 10 µM, first compound 0.3 µM
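Further: spheroids exposed to compounds for 7 days before readout.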
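Wherever viability, T/C is given: 100% = DMSO vehicle control wells.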

CC[C@@]1(O)C(=O)OCc2c1cc1n(c2=O)Cc2cc3c(CN(C)C)c(O)ccc3nc2-1 + NC1CCC(NC2CC2c2ccccc2)CC1
pIC50 (second compound 0.1 µM): < 7.00 | pIC50 (second compound 0.316 µM): < 7.00 | pIC50 (second compound 1 µM): < 7.00 | pIC50 (second compound 3.16 µM): < 7.00 | pIC50 (second compound 10 µM): < 7.00 | viability, T/C (second compound 0.1 µM, first compound 0.000316 µM): 119% | viability, T/C (second compound 0.1 µM, first compound 0.001 µM): 103% | viability, T/C (second compound 0.1 µM, first compound 0.00316 µM): 116% | viability, T/C (second compound 0.1 µM, first compound 0.01 µM): 89.5% | viability, T/C [1]: 75.6% | viability, T/C [2]: 89.9% | viability, T/C (second compound 0.316 µM, first compound 0.000316 µM): 107% | viability, T/C (second compound 0.316 µM, first compound 0.001 µM): 122% | viability, T/C (second compound 0.316 µM, first compound 0.00316 µM): 114% | viability, T/C (second compound 0.316 µM, first compound 0.01 µM): 93.3% | viability, T/C [3]: 96.5% | viability, T/C [4]: 81.1% | viability, T/C (second compound 1 µM, first compound 0.000316 µM): 120% | viability, T/C (second compound 1 µM, first compound 0.001 µM): 122% | viability, T/C (second compound 1 µM, first compound 0.00316 µM): 90.3% | viability, T/C (second compound 1 µM, first compound 0.01 µM): 95.5% | viability, T/C [5]: 77.8% | viability, T/C [6]: 81.8% | viability, T/C (second compound 3.16 µM, first compound 0.000316 µM): 120% | viability, T/C (second compound 3.16 µM, first compound 0.001 µM): 110% | viability, T/C (second compound 3.16 µM, first compound 0.00316 µM): 115% | viability, T/C (second compound 3.16 µM, first compound 0.01 µM): 78.2% | viability, T/C [7]: 87.3% | viability, T/C [8]: 71.2% | viability, T/C (second compound 10 µM, first compound 0.000316 µM): 120% | viability, T/C (second compound 10 µM, first compound 0.001 µM): 127% | viability, T/C (second compound 10 µM, first compound 0.00316 µM): 101% | viability, T/C (second compound 10 µM, first compound 0.01 µM): 104% | viability, T/C [9]: 85.1% | viability, T/C [10]: 78.9%

CCc1c2c(nc3ccc(O)cc13)-c1cc3c(c(=O)n1C2)COC(=O)[C@]3(O)CC + NC1CCC(NC2CC2c2ccccc2)CC1
pIC50 (second compound 0.1 µM): 7.18 | pIC50 (second compound 0.316 µM): 7.54 | pIC50 (second compound 1 µM): 7.32 | pIC50 (second compound 3.16 µM): 7.66 | pIC50 (second compound 10 µM): 6.67 | viability, T/C [11]: 86.3% | viability, T/C [12]: 68.7% | viability, T/C [13]: 62.7% | viability, T/C [14]: 43.7% | viability, T/C [15]: 54.4% | viability, T/C [16]: 47.8% | viability, T/C [17]: 96.8% | viability, T/C [18]: 72.7% | viability, T/C [19]: 54.2% | viability, T/C [20]: 46.7% | viability, T/C [21]: 49.9% | viability, T/C [22]: 51.4% | viability, T/C [23]: 94.5% | viability, T/C [24]: 70.6% | viability, T/C [25]: 70% | viability, T/C [26]: 50.4% | viability, T/C [27]: 42.1% | viability, T/C [28]: 44% | viability, T/C [29]: 95.2% | viability, T/C [30]: 92.8% | viability, T/C [31]: 62.1% | viability, T/C [32]: 48.2% | viability, T/C [33]: 41.3% | viability, T/C [34]: 44% | viability, T/C [35]: 89.8% | viability, T/C [36]: 79.1% | viability, T/C [37]: 64.5% | viability, T/C [38]: 69.4% | viability, T/C [39]: 51.3% | viability, T/C [40]: 48.5%

COc1cc(C2c3cc4c(cc3C(OC3OC5COC(C)OC5C(O)C3O)C3COC(=O)C23)OCO4)cc(OC)c1O (stereo not given) + NC1CCC(NC2CC2c2ccccc2)CC1
pIC50 (second compound 0.1 µM): < 5.52 | pIC50 (second compound 0.316 µM): < 5.52 | pIC50 (second compound 1 µM): < 5.52 | pIC50 (second compound 3.16 µM): < 5.52 | pIC50 (second compound 10 µM): < 5.52 | viability, T/C [13]: 108% | viability, T/C [14]: 119% | viability, T/C [15]: 112% | viability, T/C [16]: 96.6% | viability, T/C (second compound 0.1 µM, first compound 0.949 µM): 106% | viability, T/C (second compound 0.1 µM, first compound 3 µM): 85.7% | viability, T/C [19]: 105% | viability, T/C [20]: 105% | viability, T/C [21]: 97.8% | viability, T/C [22]: 94.8% | viability, T/C (second compound 0.316 µM, first compound 0.949 µM): 91.7% | viability, T/C (second compound 0.316 µM, first compound 3 µM): 95.3% | viability, T/C [25]: 118% | viability, T/C [26]: 121% | viability, T/C [27]: 117% | viability, T/C [28]: 110% | viability, T/C (second compound 1 µM, first compound 0.949 µM): 93.2% | viability, T/C (second compound 1 µM, first compound 3 µM): 97.9% | viability, T/C [31]: 125% | viability, T/C [32]: 113% | viability, T/C [33]: 115% | viability, T/C [34]: 110% | viability, T/C (second compound 3.16 µM, first compound 0.949 µM): 99% | viability, T/C (second compound 3.16 µM, first compound 3 µM): 87.9% | viability, T/C [37]: 117% | viability, T/C [38]: 115% | viability, T/C [39]: 112% | viability, T/C [40]: 111% | viability, T/C (second compound 10 µM, first compound 0.949 µM): 98.6% | viability, T/C (second compound 10 µM, first compound 3 µM): 111%

Nc1ccn(C2OC(CO)C(O)C2(F)F)c(=O)n1 (stereo not given) + NC1CCC(NC2CC2c2ccccc2)CC1
pIC50 (second compound 0.1 µM): < 6.52 | pIC50 (second compound 0.316 µM): < 6.52 | pIC50 (second compound 1 µM): < 6.52 | pIC50 (second compound 3.16 µM): < 6.52 | pIC50 (second compound 10 µM): < 6.52 | viability, T/C [11]: 77.8% | viability, T/C [12]: 72.3% | viability, T/C [13]: 71.5% | viability, T/C [14]: 81.7% | viability, T/C [15]: 68.9% | viability, T/C [16]: 78.4% | viability, T/C [17]: 86.3% | viability, T/C [18]: 80% | viability, T/C [19]: 74.6% | viability, T/C [20]: 79.2% | viability, T/C [21]: 73.2% | viability, T/C [22]: 69.6% | viability, T/C [23]: 68.5% | viability, T/C [24]: 71.7% | viability, T/C [25]: 74.6% | viability, T/C [26]: 84.9% | viability, T/C [27]: 76.5% | viability, T/C [28]: 79.1% | viability, T/C [29]: 81.5% | viability, T/C [30]: 80% | viability, T/C [31]: 85.2% | viability, T/C [32]: 78.8% | viability, T/C [33]: 76.4% | viability, T/C [34]: 68.8% | viability, T/C [35]: 91.7% | viability, T/C [36]: 78.8% | viability, T/C [37]: 84.8% | viability, T/C [38]: 92.7% | viability, T/C [39]: 74.3% | viability, T/C [40]: 80.5%

O=C(c1cc(Cc2n[nH]c(=O)c3ccccc23)ccc1F)N1CCN(C(=O)C2CC2)CC1 + NC1CCC(NC2CC2c2ccccc2)CC1
pIC50 (second compound 0.1 µM): < 5.00 | pIC50 (second compound 0.316 µM): < 5.00 | pIC50 (second compound 1 µM): < 5.00 | pIC50 (second compound 3.16 µM): < 5.00 | pIC50 (second compound 10 µM): < 5.00 | viability, T/C [1]: 112% | viability, T/C [2]: 111% | viability, T/C (second compound 0.1 µM, first compound 0.316 µM): 101% | viability, T/C (second compound 0.1 µM, first compound 1 µM): 101% | viability, T/C (second compound 0.1 µM, first compound 3.16 µM): 110% | viability, T/C (second compound 0.1 µM, first compound 10 µM): 106% | viability, T/C [3]: 104% | viability, T/C [4]: 106% | viability, T/C (second compound 0.316 µM, first compound 0.316 µM): 120% | viability, T/C (second compound 0.316 µM, first compound 1 µM): 107% | viability, T/C (second compound 0.316 µM, first compound 3.16 µM): 124% | viability, T/C (second compound 0.316 µM, first compound 10 µM): 100% | viability, T/C [5]: 114% | viability, T/C [6]: 100% | viability, T/C (second compound 1 µM, first compound 0.316 µM): 106% | viability, T/C (second compound 1 µM, first compound 1 µM): 110% | viability, T/C (second compound 1 µM, first compound 3.16 µM): 111% | viability, T/C (second compound 1 µM, first compound 10 µM): 108% | viability, T/C [7]: 117% | viability, T/C [8]: 129% | viability, T/C (second compound 3.16 µM, first compound 0.316 µM): 120% | viability, T/C (second compound 3.16 µM, first compound 1 µM): 98.8% | viability, T/C (second compound 3.16 µM, first compound 3.16 µM): 100% | viability, T/C (second compound 3.16 µM, first compound 10 µM): 113% | viability, T/C [9]: 108% | viability, T/C [10]: 116% | viability, T/C (second compound 10 µM, first compound 0.316 µM): 110% | viability, T/C (second compound 10 µM, first compound 1 µM): 119% | viability, T/C (second compound 10 µM, first compound 3.16 µM): 116% | viability, T/C (second compound 10 µM, first compound 10 µM): 89%
